Data: patent US20230365546A1, “5-SUBSTITUTED INDOLE 3-AMIDE DERIVATIVES, PREPARATION METHOD AND USE THEREOF” (ORIGIANT PHARMACEUTICAL CO., LTD, priority 2020, published 2023)

Experiments:
Ron(h) = Ron(h) (Homo sapiens (Human), UniProt Q04912); assay: Kinase Profiler 10 μM panel
Protocol: (§1) In vitro kinase assays were conducted using Kinase Profiler services provided by Eurofins. The experimental method was as follows: the small molecule compound to be tested (0.001-10 μM), the protein kinase to be tested were incubated with a buffer containing substrate, 10 mM magnesium acetate, and [γ-^33P-ATP], the reaction was started by adding Mg\TPmix, after incubation for a period of time at room temperature, a 3% phosphate solution was added to the buffer to stop the reaction. Subsequently, 10 μL of the reaction mixture was quantitatively pipetted onto P30 filter paper, which was washed three times with 75 mM phosphate solution and then once with methanol. The P30 filter paper was air-dried and scintillation fluid was added for scintillation counting.

[1] = target: PI3 Kinase (p110a/p85a)(h) (Homo sapiens (Human), UniProt P42336); assay: Kinase Profiler 10 μM panel
Protocol: The experimental method was as follows: the small molecule compound to be tested (0.001-10 μM), the protein kinase to be tested were incubated with a buffer containing substrate, 10 mM magnesium acetate, and [γ-^33P-ATP], the reaction was started by adding Mg\TPmix, after incubation for a period of time at room temperature, a 3% phosphate solution was added to the buffer to stop the reaction. Subsequently, 10 μL of the reaction mixture was quantitatively pipetted onto P30 filter paper, which was washed three times with 75 mM phosphate solution and then once with methanol. The P30 filter paper was air-dried and scintillation fluid was added for scintillation counting.

PKG1β(h) = PKG1β(h) (Homo sapiens (Human), UniProt Q13976); assay: Kinase Profiler 10 μM panel
Protocol: as §1

[2] = In vivo pharmacokinetic study in rats; settings: rat, plasma, oral, 10 mg/kg
Protocol: Blood was collected from rats at different times after administration at the following time points: 0.083 h, 0.25 h, 0.5 h, 1 h, 2 h, 4 h, 8 h, and 24 h after intravenous administration; 0.25 h, 0.5 h, 1 h, 2 h, 4 h, 6 h, 8 h, and 24 h after oral administration. About 0.20 mL of blood was collected via jugular vein or other suitable means for each sample at the corresponding time, with heparin sodium for anticoagulation; the blood sample was placed on ice after collection and centrifuged within 1 h to separate the plasma (centrifugation conditions: centrifugal force 6800 g, 6 min, 2-8° C.). The collected plasma samples were stored in a refrigerator at −80° C. before analysis, and the remaining plasma samples continued to be temporarily stored in the refrigerator at −80° C. for one month after analysis.
Pharmacokinetic parameters such as AUC (0-t), T1/2, Cmax, Tmax, and MRT were calculated using WinNonlin based on plasma concentration data at different time points. The plasma drug concentration-time curve was plotted with BLQ recorded as 0. For the calculation of pharmacokinetic parameters, the concentration before administration was calculated as 0; BLQ before Cmax (including “No peak”) was calculated as 0; no BLQ (including “No peak”) appeared after Cmax participated in the calculation. The experiment was completed by Shanghai Medicilon Inc.

ALK4(h) = ALK4(h) (Homo sapiens (Human), UniProt P36896); assay: Kinase Profiler 10 μM panel
Protocol: as §1

PKBγ(h) = PKBγ(h) (Homo sapiens (Human), UniProt Q9Y243); assay: Kinase Profiler 10 μM panel
PKBγ(h), sequence (Q9Y243 whole entry): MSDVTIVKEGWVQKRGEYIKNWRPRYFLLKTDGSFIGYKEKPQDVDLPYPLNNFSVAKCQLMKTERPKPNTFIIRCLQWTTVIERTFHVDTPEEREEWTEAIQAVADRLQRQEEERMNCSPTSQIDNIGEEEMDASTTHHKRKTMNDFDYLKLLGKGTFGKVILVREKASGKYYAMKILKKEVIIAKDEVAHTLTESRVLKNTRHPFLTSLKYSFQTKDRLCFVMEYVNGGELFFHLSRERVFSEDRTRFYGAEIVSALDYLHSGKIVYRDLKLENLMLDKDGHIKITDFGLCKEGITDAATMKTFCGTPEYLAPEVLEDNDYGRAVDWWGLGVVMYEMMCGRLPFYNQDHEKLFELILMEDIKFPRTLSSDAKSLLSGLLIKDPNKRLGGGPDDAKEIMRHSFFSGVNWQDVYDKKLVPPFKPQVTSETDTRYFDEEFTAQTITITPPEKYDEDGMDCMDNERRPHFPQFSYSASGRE
Protocol: as §1

IKKϵ(h) = IKKϵ(h) (Homo sapiens (Human), UniProt Q14164); assay: Kinase Profiler 10 μM panel
IKKϵ(h), sequence (Q14164 whole entry): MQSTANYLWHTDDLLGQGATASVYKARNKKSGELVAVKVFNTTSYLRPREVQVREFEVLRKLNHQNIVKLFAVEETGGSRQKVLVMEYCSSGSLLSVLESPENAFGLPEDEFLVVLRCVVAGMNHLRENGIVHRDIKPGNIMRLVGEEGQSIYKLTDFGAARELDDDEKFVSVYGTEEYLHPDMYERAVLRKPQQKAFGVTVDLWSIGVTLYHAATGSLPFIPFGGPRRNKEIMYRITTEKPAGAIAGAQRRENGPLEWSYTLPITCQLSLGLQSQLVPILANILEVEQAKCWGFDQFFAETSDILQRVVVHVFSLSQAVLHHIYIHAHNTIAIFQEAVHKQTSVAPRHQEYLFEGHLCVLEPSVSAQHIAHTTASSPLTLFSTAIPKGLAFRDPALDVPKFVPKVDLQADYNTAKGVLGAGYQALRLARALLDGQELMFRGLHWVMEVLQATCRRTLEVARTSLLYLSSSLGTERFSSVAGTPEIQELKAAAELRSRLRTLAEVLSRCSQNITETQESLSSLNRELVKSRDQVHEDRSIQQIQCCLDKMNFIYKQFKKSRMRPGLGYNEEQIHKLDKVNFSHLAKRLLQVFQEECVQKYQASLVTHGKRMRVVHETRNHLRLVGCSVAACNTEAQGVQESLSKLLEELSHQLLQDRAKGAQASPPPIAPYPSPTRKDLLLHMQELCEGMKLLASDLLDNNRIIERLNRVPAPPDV
Protocol: as §1

SAPK4(h) = SAPK4(h) (Homo sapiens (Human), UniProt O15264); assay: Kinase Profiler 10 μM panel
SAPK4(h), sequence (O15264 whole entry): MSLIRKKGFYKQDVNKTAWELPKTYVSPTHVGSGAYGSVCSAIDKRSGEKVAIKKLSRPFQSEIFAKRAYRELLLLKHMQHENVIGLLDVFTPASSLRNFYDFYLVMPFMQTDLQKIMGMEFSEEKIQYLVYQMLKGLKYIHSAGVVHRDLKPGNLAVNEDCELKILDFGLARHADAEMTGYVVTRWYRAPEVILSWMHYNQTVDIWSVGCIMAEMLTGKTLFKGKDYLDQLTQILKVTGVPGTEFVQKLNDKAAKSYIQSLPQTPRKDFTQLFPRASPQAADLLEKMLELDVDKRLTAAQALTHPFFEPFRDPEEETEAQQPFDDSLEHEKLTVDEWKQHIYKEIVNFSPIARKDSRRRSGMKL
Protocol: as §1

PIP5K1a(h) = PIP5K1a(h) (Homo sapiens (Human), UniProt Q99755); assay: Kinase Profiler 10 μM panel
Protocol: as §1

Rsk1(r) = Rsk1(r) (Rattus norvegicus (Rat), UniProt Q63531); assay: Kinase Profiler 10 μM panel
Protocol: as §1

CaMKIV(h) = CaMKIV(h) (Homo sapiens (Human), UniProt Q16566); assay: Kinase Profiler 10 μM panel
CaMKIV(h), sequence (Q16566 whole entry): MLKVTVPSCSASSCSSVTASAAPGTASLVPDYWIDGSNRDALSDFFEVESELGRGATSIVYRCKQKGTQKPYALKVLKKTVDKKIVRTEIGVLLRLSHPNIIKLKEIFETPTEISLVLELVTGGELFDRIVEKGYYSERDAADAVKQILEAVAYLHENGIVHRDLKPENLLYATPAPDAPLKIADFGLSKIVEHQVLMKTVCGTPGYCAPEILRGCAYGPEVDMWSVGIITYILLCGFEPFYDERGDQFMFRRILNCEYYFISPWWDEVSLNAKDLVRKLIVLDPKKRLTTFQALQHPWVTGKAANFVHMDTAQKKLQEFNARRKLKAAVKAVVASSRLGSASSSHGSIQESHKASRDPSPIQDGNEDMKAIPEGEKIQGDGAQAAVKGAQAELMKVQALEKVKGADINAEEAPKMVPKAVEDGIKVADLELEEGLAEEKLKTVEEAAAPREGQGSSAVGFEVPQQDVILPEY
Protocol: as §1

PKD2(h) = PKD2(h) (Homo sapiens (Human), UniProt Q9BZL6); assay: Kinase Profiler 10 μM panel
PKD2(h), sequence (Q9BZL6 whole entry): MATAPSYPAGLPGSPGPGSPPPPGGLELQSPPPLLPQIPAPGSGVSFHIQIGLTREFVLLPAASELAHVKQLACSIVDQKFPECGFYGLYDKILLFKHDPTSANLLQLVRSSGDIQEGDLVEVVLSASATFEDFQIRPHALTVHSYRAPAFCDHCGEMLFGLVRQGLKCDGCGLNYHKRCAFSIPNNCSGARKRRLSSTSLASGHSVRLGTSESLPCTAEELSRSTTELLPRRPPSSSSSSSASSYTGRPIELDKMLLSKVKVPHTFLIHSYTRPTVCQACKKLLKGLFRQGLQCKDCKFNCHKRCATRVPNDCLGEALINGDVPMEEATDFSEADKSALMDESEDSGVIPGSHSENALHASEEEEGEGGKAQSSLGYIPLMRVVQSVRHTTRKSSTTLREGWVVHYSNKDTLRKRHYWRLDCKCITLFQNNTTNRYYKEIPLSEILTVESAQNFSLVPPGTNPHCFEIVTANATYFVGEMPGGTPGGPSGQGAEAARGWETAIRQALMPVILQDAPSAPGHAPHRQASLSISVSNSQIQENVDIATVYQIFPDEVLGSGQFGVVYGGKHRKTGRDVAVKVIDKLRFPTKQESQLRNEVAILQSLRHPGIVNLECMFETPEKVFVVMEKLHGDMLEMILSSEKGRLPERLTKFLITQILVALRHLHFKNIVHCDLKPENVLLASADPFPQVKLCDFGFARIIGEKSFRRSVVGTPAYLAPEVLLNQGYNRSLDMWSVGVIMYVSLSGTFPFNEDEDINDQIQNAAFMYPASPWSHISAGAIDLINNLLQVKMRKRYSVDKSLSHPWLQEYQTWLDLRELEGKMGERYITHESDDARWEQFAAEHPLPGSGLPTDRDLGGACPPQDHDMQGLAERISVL
Protocol: as §1

cKit(h) = cKit(h) (Homo sapiens (Human), UniProt P10721); assay: Kinase Profiler 10 μM panel
cKit(h), sequence (P10721 26-976): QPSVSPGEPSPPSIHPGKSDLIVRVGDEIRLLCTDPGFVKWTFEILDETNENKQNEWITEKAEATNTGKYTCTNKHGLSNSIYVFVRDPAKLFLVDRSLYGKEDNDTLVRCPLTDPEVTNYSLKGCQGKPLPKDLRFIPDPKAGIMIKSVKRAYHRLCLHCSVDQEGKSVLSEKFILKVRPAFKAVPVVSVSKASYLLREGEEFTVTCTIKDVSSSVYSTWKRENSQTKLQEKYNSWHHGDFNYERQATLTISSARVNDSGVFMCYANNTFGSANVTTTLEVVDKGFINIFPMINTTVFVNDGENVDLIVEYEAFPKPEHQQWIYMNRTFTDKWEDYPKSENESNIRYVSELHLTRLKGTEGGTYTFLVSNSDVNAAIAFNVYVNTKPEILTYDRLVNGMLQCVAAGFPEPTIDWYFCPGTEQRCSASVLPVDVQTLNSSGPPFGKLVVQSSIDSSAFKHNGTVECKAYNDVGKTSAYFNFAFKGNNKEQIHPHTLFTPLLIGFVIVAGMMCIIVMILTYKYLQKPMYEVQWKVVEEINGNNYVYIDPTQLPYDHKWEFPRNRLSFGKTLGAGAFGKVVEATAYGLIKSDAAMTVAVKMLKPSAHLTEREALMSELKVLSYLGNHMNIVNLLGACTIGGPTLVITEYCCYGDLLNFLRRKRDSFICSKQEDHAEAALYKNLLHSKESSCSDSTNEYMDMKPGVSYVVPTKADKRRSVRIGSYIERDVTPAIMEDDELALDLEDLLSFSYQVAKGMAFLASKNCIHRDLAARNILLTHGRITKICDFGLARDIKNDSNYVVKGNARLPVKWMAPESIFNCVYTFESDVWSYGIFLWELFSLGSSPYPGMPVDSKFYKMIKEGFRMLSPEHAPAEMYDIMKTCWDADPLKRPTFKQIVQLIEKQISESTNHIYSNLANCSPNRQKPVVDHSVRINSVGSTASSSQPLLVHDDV
Protocol: as §1

DRAK2(h) = DRAK2(h) (Homo sapiens (Human), UniProt O94768); assay: Kinase Profiler 10 μM panel
Protocol: as §1

cKit(D816V)(h) = cKit(D816V)(h) (Homo sapiens (Human), UniProt P10721, D816V); assay: Kinase Profiler 10 μM panel
cKit(D816V)(h), sequence (P10721 26-976 D816V): as the sequence (P10721 26-976) above, with D791V counted along it
Protocol: as §1

Arg(h) = Arg(h) (Homo sapiens (Human), UniProt P42684); assay: Kinase Profiler 10 μM panel
Protocol: as §1

Fes(h) = Fes(h) (Homo sapiens (Human), UniProt P07332); assay: Kinase Profiler 10 μM panel
Protocol: as §1

cKit(V560G)(h) = cKit(V560G)(h) (Homo sapiens (Human), UniProt P10721, V560G); assay: Kinase Profiler 10 μM panel
cKit(V560G)(h), sequence (P10721 26-976 V560G): as the sequence (P10721 26-976) above, with V535G counted along it
Protocol: as §1

CSK(h) = CSK(h) (Homo sapiens (Human), UniProt P41240); assay: Kinase Profiler 10 μM panel
Protocol: as §1

PASK(h) = PASK(h) (Homo sapiens (Human), UniProt Q96RG2); assay: Kinase Profiler 10 μM panel
Protocol: as §1

SAPK2a(h) = SAPK2a(h) (Homo sapiens (Human), UniProt Q16539); assay: Kinase Profiler 10 μM panel
Protocol: as §1

EGFR(T790M,L858R)(h) = EGFR(T790M,L858R)(h) (Homo sapiens (Human), UniProt P00533, L858R/T790M); assay: Kinase Profiler 10 μM panel
Protocol: as §1

MST1(h) = MST1(h) (Homo sapiens (Human), UniProt Q13043); assay: Kinase Profiler 10 μM panel
Protocol: as §1

[3] = target: PI3 Kinase (p110b/p85b)(m) (Mus musculus (Mouse), UniProt Q8BTI9); assay: Kinase Profiler 10 μM panel
Protocol: as §1

Flt1(h) = Flt1(h) (Homo sapiens (Human), UniProt P17948); assay: Kinase Profiler 10 μM panel
Protocol: as §1

TSSK4(h) = TSSK4(h) (Homo sapiens (Human), UniProt Q6SA08); assay: Kinase Profiler 10 μM panel
TSSK4(h), sequence (Q6SA08 whole entry): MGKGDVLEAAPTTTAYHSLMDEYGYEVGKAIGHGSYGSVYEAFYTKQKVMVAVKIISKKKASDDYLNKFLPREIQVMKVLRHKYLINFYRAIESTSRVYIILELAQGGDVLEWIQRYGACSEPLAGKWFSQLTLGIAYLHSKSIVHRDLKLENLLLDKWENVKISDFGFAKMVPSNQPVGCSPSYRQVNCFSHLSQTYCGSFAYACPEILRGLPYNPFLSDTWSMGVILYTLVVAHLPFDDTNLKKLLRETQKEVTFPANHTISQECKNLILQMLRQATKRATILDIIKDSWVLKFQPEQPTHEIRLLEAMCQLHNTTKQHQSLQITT
Protocol: as §1

Abl(h) = Abl(h) (Homo sapiens (Human), UniProt P00519); assay: Kinase Profiler 10 μM panel
Protocol: as §1

PKG1β(h), sequence (Q13976 other isoform, or with tags, fused parts or gaps): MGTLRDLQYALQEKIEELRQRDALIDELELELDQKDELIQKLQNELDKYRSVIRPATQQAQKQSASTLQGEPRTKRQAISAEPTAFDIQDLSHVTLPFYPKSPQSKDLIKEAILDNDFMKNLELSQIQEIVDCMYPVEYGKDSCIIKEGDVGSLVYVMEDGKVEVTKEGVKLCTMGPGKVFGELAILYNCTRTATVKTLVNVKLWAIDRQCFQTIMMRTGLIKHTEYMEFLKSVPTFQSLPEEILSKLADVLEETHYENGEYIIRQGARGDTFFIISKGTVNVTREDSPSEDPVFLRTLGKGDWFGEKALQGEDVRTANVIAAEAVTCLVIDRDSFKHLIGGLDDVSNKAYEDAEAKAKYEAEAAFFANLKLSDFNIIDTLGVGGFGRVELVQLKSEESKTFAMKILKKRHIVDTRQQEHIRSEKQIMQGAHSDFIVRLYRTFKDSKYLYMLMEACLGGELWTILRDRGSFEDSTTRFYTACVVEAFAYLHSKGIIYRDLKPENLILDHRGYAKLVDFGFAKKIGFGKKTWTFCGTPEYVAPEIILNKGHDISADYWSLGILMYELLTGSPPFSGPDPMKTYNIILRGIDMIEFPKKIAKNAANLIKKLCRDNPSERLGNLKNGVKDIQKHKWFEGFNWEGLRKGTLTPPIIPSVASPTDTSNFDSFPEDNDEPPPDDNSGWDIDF

**Q.** For `C[C@H](NC(=O)c1c[nH]c2ccc(-c3ccc4nc(NC(=O)C5CC5)sc4c3)cc12)c1cccc(F)c1` [Compound 34, (S)-5-(2-(cyclopropanecarboxamido)benzo[d]thiazol-6-yl)-N-(1-(3-fluorophenyl)ethyl)-1H-indole-3-carboxamide], which Inhibition ratio (Ron(h)) is on record?
**A.** 44%

**Q.** What about the Inhibition ratio [1] of the same molecule?
**A.** 23%

**Q.** And the Inhibition ratio (PKG1β(h))?
**A.** 7%

**Q.** And the AUC(0-t) [2]?
**A.** 4450 ng·h/mL

**Q.** And the Cmax [2]?
**A.** 852 ng/mL

**Q.** What about the Tmax [2] of the same molecule?
**A.** 4 h

**Q.** And the bioavailability [2]?
**A.** 7.89%

**Q.** And the half-life [2]?
**A.** 2.06 h

**Q.** And the Inhibition ratio (ALK4(h))?
**A.** 3%

**Q.** What about the Inhibition ratio (PKBγ(h)) of the same molecule?
**A.** 11%

**Q.** And the Inhibition ratio (IKKϵ(h))?
**A.** 19%

**Q.** What about the Inhibition ratio (SAPK4(h)) of the same molecule?
**A.** 94%

**Q.** And the Inhibition ratio (PIP5K1a(h))?
**A.** 21%

**Q.** What about the Inhibition ratio (Rsk1(r)) of the same molecule?
**A.** 45%

**Q.** And the Inhibition ratio (CaMKIV(h))?
**A.** 20%

**Q.** And the Inhibition ratio (PKD2(h))?
**A.** 46%

**Q.** What about the Inhibition ratio (cKit(h)) of the same molecule?
**A.** 4%

**Q.** What about the Inhibition ratio (DRAK2(h)) of the same molecule?
**A.** 18%

**Q.** And the Inhibition ratio (cKit(D816V)(h))?
**A.** 0%

**Q.** And the Inhibition ratio (Arg(h))?
**A.** 89%

**Q.** What about the Inhibition ratio (Fes(h)) of the same molecule?
**A.** 26%

**Q.** And the Inhibition ratio (cKit(V560G)(h))?
**A.** 88%

**Q.** And the Inhibition ratio (CSK(h))?
**A.** 13%

**Q.** What about the Inhibition ratio (PASK(h)) of the same molecule?
**A.** −25%

**Q.** What about the Inhibition ratio (SAPK2a(h)) of the same molecule?
**A.** 29%

**Q.** And the Inhibition ratio (EGFR(T790M,L858R)(h); EGFR(T790M,L858R)(h))?
**A.** 84%

**Q.** What about the Inhibition ratio (MST1(h)) of the same molecule?
**A.** 5%

**Q.** What about the Inhibition ratio [3] of the same molecule?
**A.** 45%

**Q.** What about the Inhibition ratio (Flt1(h)) of the same molecule?
**A.** 100%

**Q.** What about the Inhibition ratio (TSSK4(h)) of the same molecule?
**A.** 13%

**Q.** What about the Inhibition ratio (Abl(h)) of the same molecule?
**A.** 102%

**Q.** Which Inhibition ratio/% (Ron(h)) does the source give for `C[C@H](NC(=O)c1cn(C)c2ccc(-c3ccn4nc(NC(=O)C5CC5)nc4c3)cc12)c1cccc(F)c1` [Compound 94, (S)-5-(2-(cyclopropanecarboxamido)-[1,2,4]triazolo[1,5-a]pyridin-7-yl)-N-(1-(3-fluorophenyl)ethyl)-1-methyl-1H-indole-3-carboxamide] here?
**A.** 17%

**Q.** And the Inhibition ratio/% [1]?
**A.** 3%

**Q.** What about the Inhibition ratio/% (PKG1β(h)) of the same molecule?
**A.** 0%

**Q.** And the AUC(0-t) [2]?
**A.** 1850 ng·h/mL

**Q.** And the Cmax [2]?
**A.** 330 ng/mL

**Q.** And the Tmax [2]?
**A.** 1.67 h

**Q.** What about the bioavailability [2] of the same molecule?
**A.** 12.1%

**Q.** What about the half-life [2] of the same molecule?
**A.** 7.02 h

**Q.** What about the Inhibition ratio/% (ALK4(h)) of the same molecule?
**A.** −18%

**Q.** What about the Inhibition ratio/% (PKBγ(h)) of the same molecule?
**A.** 31%

**Q.** What about the Inhibition ratio/% (IKKϵ(h)) of the same molecule?
**A.** −15%

**Q.** What about the Inhibition ratio/% (SAPK4(h)) of the same molecule?
**A.** 12%

**Q.** And the Inhibition ratio/% (PIP5K1a(h))?
**A.** 16%

**Q.** What about the Inhibition ratio/% (Rsk1(r)) of the same molecule?
**A.** 20%

**Q.** What about the Inhibition ratio/% (CaMKIV(h)) of the same molecule?
**A.** 21%

**Q.** And the Inhibition ratio/% (PKD2(h))?
**A.** 9%

**Q.** What about the Inhibition ratio/% (cKit(h)) of the same molecule?
**A.** 21%

**Q.** And the Inhibition ratio/% (DRAK2(h))?
**A.** 37%

**Q.** What about the Inhibition ratio/% (cKit(D816V)(h)) of the same molecule?
**A.** 75%

**Q.** What about the Inhibition ratio/% (Arg(h)) of the same molecule?
**A.** 42%

**Q.** And the Inhibition ratio/% (Fes(h))?
**A.** 54%

**Q.** What about the Inhibition ratio/% (cKit(V560G)(h)) of the same molecule?
**A.** 65%

**Q.** What about the Inhibition ratio/% (CSK(h)) of the same molecule?
**A.** 60%

**Q.** What about the Inhibition ratio/% (PASK(h)) of the same molecule?
**A.** 53%

**Q.** And the Inhibition ratio/% (SAPK2a(h))?
**A.** 17%

**Q.** What about the Inhibition ratio/% (EGFR(T790M,L858R)(h); EGFR(T790M, L858R)(h)) of the same molecule?
**A.** 52%

**Q.** And the Inhibition ratio/% (MST1(h))?
**A.** 20%

**Q.** What about the Inhibition ratio/% [3] of the same molecule?
**A.** 44%

**Q.** What about the Inhibition ratio/% (Flt1(h)) of the same molecule?
**A.** 42%

**Q.** And the Inhibition ratio/% (TSSK4(h))?
**A.** 49%

**Q.** And the Inhibition ratio/% (Abl(h))?
**A.** 32%
